{
  "source": "patent EP0551200A1",
  "about": "“Protein phosphatase inhibitors for use in therapy” (priority 1992, dated 1993)",
  "key": {"27 hsp complex": {"tested_on": "27 hsp complex", "experiment": "Phosphorylation of the 27 hsp complex in the cytosolic fraction of 32P-labeled fibroblasts", "assay_type": "cell-based, human", "protocol": "Human fibroblasts prelabeled with [³²P]orthophosphate (1 mCi/ml) were incubated with increasing concentrations of OA or TNF. Cytosolic fractions were prepared from the cells and subjected to two-dimensional gel electrophoresis. a, control; b, 80 nM OA; c, 160 nM OA; d, 50 units/ml TNF; and e, 320 nM OA.\nThe fibroblasts were treated with 200 nM of okadaic acid for 0 min (a), 5 min (b), 15 min (c), or 30 min (d). Cytosolic fractions were prepared from the fibroblasts and analyzed by two-dimensional gel electrophoresis.\nRadiolabeling of Cells and Cell Lysis - For labeling with [³²P]orthophosphate cells were plated onto 90 mm plastic tissue culture dishes and incubated for 3 days for the cells to become confluent. […]\nTwo-dimensional Gel Electrophoresis - The lyophilized fractions (each of approximately 12 µg) were subjected to isoelectric focusing for 18,000 V/h with pH 3-10 ampholytes using the Millipore Investigator two-dimensional electrophoresis system (Millipore). […] Molecular weight marker proteins from Sigma were detected by Coomassie Blue staining and marked on the autoradiogram. ³²P-Labeled 27 hsp complex prepared from human fibroblasts heat shocked at 43°C for 30 min was also used as a marker. […]"}, "mouse fibroblasts": {"tested_on": "mouse fibroblasts", "experiment": "Total cellular protein synthesis in mouse fibroblasts", "assay_type": "cell-based", "conditions": "data not shown", "protocol": "Quiescent human fibroblasts were stimulated with MEM containing 0.5 µM okadaic acid in the presence or absence of cycloheximide (10 µg/ml) for the times indicated in Fig. 11. […] Treatment of cells with cycloheximide enhanced the induction of Egr-1 mRNA by okadaic acid at 1.5 and 3 h (Fig. 11). Similarly puromycin, like cycloheximide, also \"superinduces\" the induction of the Egr-1 mRNA by okadaic acid (data not shown). […] However, in view that protein phosphatase 1 (PP1) and protein phosphatase 2A (PP2A) regulate enzymes associated with cellular protein synthesis (Cohen, Annu. Rev. Biochem. 58, 453-508, 1989) the effect of okadaic acid on protein synthesis in mouse and human fibroblasts was also measured. […] By then the Egr-1 mRNA message was already induced. A corollary to this is a comparison of the amount of ³⁵S-methionine labelled Egr-1 protein immunoprecipitated by R5232 antibodies from protein phosphatase inhibitor-treated and control cells. […] Thus, the induction of the Egr-1 gene by phosphatase inhibitors is unlikely to be mediated by their late inhibitory effects on cellular protein synthesis."}, "EGFR": {"tested_on": "EGFR", "experiment": "Phosphorylation of EGF receptor, immunoprecipitation from 32P-labeled fibroblasts", "assay_type": "cell-based, human", "conditions": "250 nM, 15 min", "protocol": "Phosphorylation of EGFR by TNF, IL-1, EGF, PDGF (indicated as PGF) and okadaic acid (OA). ³²P-Labeled cultures of fibroblast cells were treated with TNF (100 units/ml), IL-1 (100 units/ml), EGF (50 ng/ml), PDGF (32 ng/ml) or OA (250 nM) for 15 min. Control is indicated by 0. The EGFR was immunoprecipitated with anti-EGFR antibody (Oncogene Science, Manhasset, N.Y., US). The proteins were subjected to 7.5% SDS-PAGE and autoradiography.\nIL-1, TNF, or Okadaic Acid Treatment Stimulate Phosphorylation of the EGF Receptor - One feature of TNF and IL-1 action is the transmodulation of the EGFR via phosphorylation. Okadaic acid was added to human fibroblasts to see if it can also mimic this effect of TNF and IL-1. ³²P-Labeled human fibroblasts were treated with ligand (TNF, IL-1, EGF, PDGF, or okadaic acid) for 15 min and extracted for analysis. The extracts were immunoprecipitated with anti-EGFR antibodies. The immunoprecipitated EGFR derived from variously treated fibroblasts was analyzed by SDS-PAGE and autoradiography."}},
  "data": [
    {"smiles": "C=C1[C@@H](O)[C@@H]2O[C@]3(CC[C@H](/C=C/[C@@H](C)[C@@H]4CC(C)=C[C@@]5(O[C@H](C[C@@](C)(O)C(=O)O)CC[C@H]5O)O4)O3)CC[C@H]2O[C@@H]1[C@@H](O)C[C@H](C)[C@H]1O[C@@]2(CCCCO2)CC[C@H]1C", "note": "[okadaic acid]", "values": [
      {"measurement": "phosphorylation state of the 27 hsp complex (in words)", "setting": "27 hsp complex; 200 nM, after 30 min", "result": "hyperphosphorylated"},
      {"measurement": "concentration producing about the same increase in phosphorylation of the 27 hsp complex as 50 units/ml of TNF", "setting": "27 hsp complex; 15 min", "result": "160 to 320", "unit": "nM"},
      {"measurement": "effect on total cellular protein synthesis (in words)", "setting": "mouse fibroblasts; 0.5 µM, first 2 h", "result": "little measurable effect"},
      {"measurement": "inhibition at 0.5 µM", "setting": "mouse fibroblasts; Mus musculus, Fibroblast, at 4 h", "result": "≤ 50", "unit": "%"},
      {"measurement": "stimulation of phosphorylation of the EGFR (in words)", "setting": "EGFR", "result": "to an even greater extent than does TNF, IL-1, EGF or PDGF"}
    ]}
  ]
}
